Patent publication US9234025B2, “Extracellular allosteric inhibitor binding domain from a tyrosine kinase receptor” (SANOFI, priority 2009, dated 2016)

How the values were obtained:
[1] = molecular target: T1, ECD of FGFR1 (FGFR1^∂123) (Homo sapiens, UniProt P11362); test: STD-NMR / 1D-NMR binding assay, FGFR1 ECD
T1 construct: (ECD; amino acids: 39-358) of the human FGFR1 gene (P11362); His-tag followed by TEV protease cleavage site (N); made in house; host or cells: E. coli BL21(DE3)
Procedure: The extracellular domain (ECD; amino acids: 39-358) of the human FGFR1 gene (P11362) was PCR amplified and cloned into E. coli vector pETTEV (with a N-terminal His-tag followed by a TEV protease cleavage site), using NdeI and BamHI restriction sites. For protein production, the resulting plasmid (pET FGFR1 D1D2D3) was transformed into E. coli BL21(DE3) (Novagene). Cells were grown at 37° C. until the OD600 reached 0.6 and recombinant protein production was induced by adding 1 mM IPTG (isopropyl-b-D-thiogalactopyranoside). After 4 hours induction, cells were harvested and stored at −80° C. until usage. The cell pellet (1 L culture) was thawed and resuspended in 50 ml buffer 1 (20 mM Tris/HCl, pH 7.5, 200 mM NaCl) containing lysozyme (2 mg), and 40 U benzonase (Merck). […] Complex formation was analyzed by size exclusion chromatography and subsequent analysis on SDS-PAGE.
All STD- and 1D-NMR experiments were carried out on a BRUKER three-channel DRX600 and on a BRUKER four-channel DRX800 spectrometer at the standard temperature of 298 K and were referenced to the internal standard 3-Trimethyl-2,2,3,3-tetradeuteropropionate-sodium salt (TSP). […] For protein ligand 1D STD NMR measurements spectra were recorded with 1 mM ligand SSR128129E (100 mM DMSO stock solution) and […] protein with weak 2s RF irradiation on separated protein methyl resonances. […]

FGFR2^∂23 = molecular target: T2, FGFR2^∂23 (Homo sapiens, UniProt P21802); test: Fourier transform infrared (FTIR) measurement, FGFR2 D2-3; details: maximum around 1,640 cm^−1, 100 μM SSR
T2 construct: FGFR2^∂23 (consisting of domain D2 and 3); made in house
Procedure: Fourier transform infrared measurements were performed using a Bruker Tensor 37 FT-IR spectrometer equipped with an AquaSpec flowcell. The sample compartment was thermostatted to 25° C., 100 spectra were averaged for a good signal to noise ratio. Proteins were purified as described above. Immediately after the gelfiltration, the proteins were dialysed overnight in the same preparation of buffer (10 mM Hepes pH 7.2, 150 mM NaCl) in the presence or absence of SSR. Dialysis buffer samples were used to substract background signal. The analysis was performed using the OPUS software package, provided by Bruker. Interpretation of the results was performed as described {Barth, 2002 #60}.

FGFR2 = test: FRS2, Erk1/2 and PLCγ phosphorylation in FGFR2-transfected HEK293 cells (western blot); assay type: cell-based, human; details: compound at 1 μM
Procedure: HEK293 cells were either transiently of stably transfected (using FuGENE 6, Roche) with hFGFR2IIIca or hFGFR2IIIca-Y328D cloned in pcDNA3 (Invitrogen). Stably transfected cells were grown in G418 (400 μg/ml) containing medium. Before stimulation, the cells were starved overnight in DMEM (0% serum), and pre-incubated with […] at the required concentration. The cells were subsequently stimulated with FGF2 (concentration between 0.5-10 ng/ml) for 5 min at 37° C. with or without SSR or SU5402 at 1 μM. After washing with ice-cold phosphate-buffered saline containing phosphatase inhibitors (Roche), cells were lysed in RIPA buffer (Tris 30 mM HCl pH 7.5, 150 mM NaCl, 1 mM EDTA, 1% triton-X, 0.5% w/v deoxycholate, containing phophatase and protease inhibitors as described by the manufacturer (Roche)). Cell lysates were centrifuged at 12,000 g for 10 min, and the supernatants were collected. Proteins were separated on Novex polyacrylamide gels (Invitrogen, Carlsbad, Calif.) and subsequently transferred onto Hybond ECL nitrocellulose membranes (Amersham Pharmacia). Following incubation with 5% non-fat milk powder in PBS, the membranes were incubated overnight at 4° C. with the following antibodies: phospho-ERK1/2 (CST:9101), phospho-FRS2 (CST:3861), phospho-PLCγ (CST:2821) and FGFR2 (F0300, Sigma).
In order to evaluate SSR effect on FGFR-controlled phosphor-signalling, HEK293 cells have been transfected with FGFR2 and the two main pathways following FGFR autophosphorylation, PLCγ and FRS2, have been studied by western blot in comparison with a published FGFR tyrosine kinase inhibitor SU5402 described to inhibit FGFR-dependent FRS2 and PLCγ cascades (Zhen et al., Oncogene 2007). In such cells, FGF induces FRS2, Erk1/2 and PLCγ phosphorylation. […] More generally, these differences in phosphorylation can be used as reporter to evaluate allosteric modulators.

T1 sequence (P11362 39-358): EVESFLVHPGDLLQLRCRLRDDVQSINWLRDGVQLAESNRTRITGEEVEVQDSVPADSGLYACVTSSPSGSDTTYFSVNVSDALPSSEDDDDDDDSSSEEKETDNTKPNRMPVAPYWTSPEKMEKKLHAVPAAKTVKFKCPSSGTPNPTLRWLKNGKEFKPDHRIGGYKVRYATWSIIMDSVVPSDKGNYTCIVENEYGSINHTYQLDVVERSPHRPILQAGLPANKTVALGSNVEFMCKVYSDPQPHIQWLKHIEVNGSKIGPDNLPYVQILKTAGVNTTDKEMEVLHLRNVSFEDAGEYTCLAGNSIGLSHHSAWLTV
T2 sequence (P21802 148-366 limits assumed): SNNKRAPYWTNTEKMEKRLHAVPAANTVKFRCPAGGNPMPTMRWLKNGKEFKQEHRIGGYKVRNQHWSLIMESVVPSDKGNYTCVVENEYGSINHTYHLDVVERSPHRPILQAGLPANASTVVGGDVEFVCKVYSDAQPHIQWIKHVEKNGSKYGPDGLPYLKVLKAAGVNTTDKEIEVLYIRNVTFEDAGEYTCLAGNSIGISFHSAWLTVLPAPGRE

## COc1c(C)c(C(=O)c2ccc(N)c(C(=O)[O-])c2)n2ccccc12.[Na+] [SSR]
[1]; STD-NMR, confirmed by 1D-NMR peak broadening
  binding to ECD of FGFR1: bound
[1]; presence or absence of sucrose octasulphate (SOS)
  STD-NMR signal of SSR to the FGFR with heparin analogue: comparable signal
FGFR2^∂23
  change of FTIR spectrum (conformational change): increase in the amplitude of the amide I band
FGFR2
  FGF-induced FRS2 phosphorylation: only inhibits FRS2 pathway
  FGF-induced PLCγ phosphorylation: doesn't inhibit
